What was measured:
[1] = target: T1, recombinant wild-type HIV-1 RT enzyme (Human immunodeficiency virus type 1 group M subtype B, UniProt P03366); experiment: HIV-1 RT inhibition assay (ELISA, Roche RT assay kit); type: biochemical
T1 construct: recombinant wild-type HIV-1 RT enzyme; purchased Roche (Basel, Switzerland)
Procedure: The HIV-1 RT inhibition assay was performed by using an RT assay kit produced by Roche (Basel, Switzerland).
The biotin-labeled dNTPs were incorporated into the cDNA chain in the presence of RT and bound to streptavidin. The washing buffer was used to wash the unbound dNTPs and add the anti-DIG-POD to the MTPs.
The peroxide substrate (ABST) solution was added to the MTPs, when the unbound anti-DIG-PODs were washed out. […] The absorbance of the sample was determined at OD405 nm using a microtiter plate ELISA reader. The percentage inhibitory activity of RT inhibitors was calculated according to the following formula: % inhibition = [O.D. value with RT but without inhibitors − O.D. value with RT and inhibitors]/[O.D. value with RT and inhibitors − O.D. value without RT and inhibitors].

[2] = system: HIV-1 Y188L mutant strain; experiment: microbe, parasite or virus in culture; type: cell-based; conditions: for EC50: Human immunodeficiency virus 1, MT4, read-out: EC50 Y188L; for SI Y188L: ratio CC50/EC50, Y188L; for RF Y188L: ratio EC50 (resistant viral strain)/EC50 (wild-type viral strain)
Procedure: (§1) All data were calculated using the median optical density (OD) value of three wells.

[3] = system: HIV-1 F227L + V106A mutant strain; experiment: microbe, parasite or virus in culture; type: cell-based; conditions: for EC50: Human immunodeficiency virus 1, MT4, read-out: EC50 F227L + V106A; for RF F227L + V106A: ratio EC50 (resistant viral strain)/EC50 (wild-type viral strain); for SI F227L + V106A: ratio CC50/EC50, F227L + V106A
Procedure: as §1

[4] = system: HIV-1 Y181C mutant strain; experiment: microbe, parasite or virus in culture; type: cell-based; conditions: for SI Y181C: ratio CC50/EC50, Y181C; for RF Y181C: ratio EC50 (resistant viral strain)/EC50 (wild-type viral strain); for EC50: Human immunodeficiency virus 1, MT4, read-out: EC50 Y181C, MT-4 cells, Y181C, MTT method
Procedure: as §1

[5] = system: HIV-1 L100I mutant strain; experiment: microbe, parasite or virus in culture; type: cell-based; conditions: for EC50: Human immunodeficiency virus 1, MT4, read-out: EC50 L100I; for SI L100I: ratio CC50/EC50, L100I; for RF L100I: ratio EC50 (resistant viral strain)/EC50 (wild-type viral strain)
Procedure: as §1

[6] = system: HIV-1 double-mutant strain RES056 (K103N/Y181C); experiment: microbe, parasite or virus in culture; type: cell-based; conditions: for EC50: Human immunodeficiency virus 1, MT4, read-out: EC50 RES056; for RF RES056: ratio EC50(resistant strain)/EC50(wild-type strain); for SI RES056: selectivity index, ratio CC50/EC50, RES056
Procedure: as §1

[7] = system: HIV-1 E138K mutant strain; experiment: microbe, parasite or virus in culture; type: cell-based; conditions: for EC50: Human immunodeficiency virus 1, MT4, read-out: EC50 E138K; for SI E138K: ratio CC50/EC50, E138K; for RF E138K: ratio EC50 (resistant viral strain)/EC50 (wild-type viral strain)
Procedure: as §1

wild-type HIV-1 (IIIB) = experiment: microbe, parasite or virus in culture; type: cell-based; conditions: for EC50: Human immunodeficiency virus 1, MT4, MT-4 cells, HIV-1 IIIB, MTT method; for RF IIIB: ratio EC50(resistant strain)/EC50(wild-type strain); for SI IIIB: selectivity index, ratio CC50/EC50, IIIB
Procedure: as §1

[8] = system: HIV-1 K103N mutant strain; experiment: microbe, parasite or virus in culture; type: cell-based; conditions: for EC50: Human immunodeficiency virus 1, MT4, read-out: EC50 K103N, MT-4 cells, K103N, MTT method; for SI K103N: ratio CC50/EC50, K103N; for RF K103N: ratio EC50 (resistant viral strain)/EC50 (wild-type viral strain)
Procedure: as §1

[9] = Cytotoxicity in mock-infected MT-4 cells, MTT method; type: cell-based; conditions: human
Procedure: The 3-(4,5-dimethylthiazol-2-yl)-2,5-diphenyltetrazolium bromide (MTT) method was used to evaluate the antiviral activity and cytotoxicity of the synthesized compounds as previously described. At the beginning of each experiment, stock solutions (10× final concentration) of test compounds were added in 25 μL volumes to two series of triplicate wells for allowing the simultaneous evaluation of their effects on mock- and HIV-infected cells. The serial 5-fold dilutions of the compounds were made in flat-bottomed 96-well microtiter trays directly, including untreated control HIV-1 and mock infected cell samples for each sample using a Biomek 3000 robot (Beckman Instruments, Fullerton, CA, USA). HIV-1 (IIIB) and mutant HIV-1 strains (RES056, F227L/V106A, L100I, K103N, E138K, Y181C, and Y188L) stock (50 μL at 100–300 CCID50) (50% cell culture infectious dose) or culture medium was added to either the infected or mock-infected wells of the microtiter tray. Mock-infected cells were used to evaluate the effect on uninfected cells to assess the cytotoxicity of the test compounds. Exponentially growing MT-4 cells were centrifuged for […] at 1000 rpm (Eppendorf 5424, Hamburg, Germany) and then the supernatant was discarded. The MT-4 cells were resuspended at 6 × 10^5 cells/mL and 50 μL aliquots were transferred to the microtiter tray wells. At 5 days after infection, the viability of mock- and HIV-infected cells was determined spectrophotometrically by means of MTT assay.
(§2) The MTT assay is based on the reduction of yellow-colored MTT (Acros Organics, Geel, Belgium) by mitochondrial dehydrogenase of metabolically active cells to form a blue-purple formazan. The absorbances were read in an eight-channel computer-controlled photometer at the wavelengths of 540 and 690 nm. All data were calculated using the median optical density (OD) value of three wells.

[10] = system: wild-type and mutant HIV-1 strains; experiment: Anti-HIV-1 activity in MT-4 cells, MTT method, panel of strains (range over strains); type: cell-based; conditions: Human immunodeficiency virus 1, MT4, read-out: EC50 values over wild-type and a panel of single mutations
Procedure: […]. […] […].
The 3-(4,5-dimethylthiazol-2-yl)-2,5-diphenyltetrazolium bromide (MTT) method was used to evaluate the antiviral activity and cytotoxicity of the synthesized compounds as previously described. At the beginning of each experiment, stock solutions (10× final concentration) of test compounds were added in 25 μL volumes to two series of triplicate wells for allowing the simultaneous evaluation of their effects on mock- and HIV-infected cells. The serial 5-fold dilutions of the compounds were made in flat-bottomed 96-well microtiter trays directly, including untreated control HIV-1 and mock infected cell samples for each sample using a Biomek 3000 robot (Beckman Instruments, Fullerton, CA, USA). […] At 5 days after infection, the viability of mock- and HIV-infected cells was determined spectrophotometrically by means of MTT assay.
as §2

SMILES	IC50 [1] [nM]	EC50 [2] [nM]	SI Y188L [2]	EC50 [3] [nM]	RF F227L + V106A [3]	SI Y181C [4]	RF Y181C [4]	EC50 [5] [nM]	SI L100I [5]	RF L100I [5]	EC50 [6] [nM]	RF RES056 [6]	EC50 [7] [nM]	SI E138K [7]	RF E138K [7]	EC50 (wild-type HIV-1 (IIIB)) [nM]	RF IIIB (wild-type HIV-1 (IIIB))	EC50 [8] [nM]	SI K103N [8]	RF K103N [8]	other results
Cc1cc(/C=C/C#N)cc(C)c1Oc1nc(Nc2ccc(B3OC(C)(C)C(C)(C)O3)cc2)nc2ccsc12 [Compound 4a, (E)-3-(3,5-Dimethyl-4-((2-((4-(4,4,5,5-tetramethyl-1,3,2-dioxaborolan-2-yl)phenyl)amino)thieno [3,2-d]pyrimidin-4-yl)oxy)phenyl)acrylonitrile]	167 ± 31	1610 ± 508	> 148	> 1810	209.7	> 368	74.8	186 ± 32	> 1285	21.4	> 238000	> 27516	21 ± 7	> 11,261	2.4	9 ± 2	1.0	5 ± 6	> 47,170	0.6	fold more potent than NVP ([5]; L100I EC50, versus NVP): 3.3 fold; CC50 at 5 days [9]: > 238000 nM; EC50 [10]: 5 to 648 nM
Cc1cc(/C=C/C#N)cc(C)c1Oc1nc(Nc2ccc(B3OC(C)(C)C(C)(C)O3)cc2)nc2c1COC2 [Compound 4c, (E)-3-(3,5-Dimethyl-4-((2-((4-(4,4,5,5-tetramethyl-1,3,2-dioxaborolan-2-yl)phenyl)amino)-5,7-dihydrofuro [3,4-d]pyrimidin-4-yl)oxy)phenyl)acrylonitrile]	200 ± 28	3960 ± 894	20	5880 ± 2520	431.5	63	94.2	553 ± 152	145	40.6	13900 ± 9320	1018	39 ± 18	2036	2.9	14 ± 6	1.0	26 ± 5	3110	1.9	RF Y188L [2]: 290.3; SI F227L + V106A [3]: 14; EC50 [4]: 1280 ± 489 nM; SI RES056 [6]: 6; SI IIIB (wild-type HIV-1 (IIIB)): 5890; CC50 at 5 days [9]: 80300 ± 31300 nM; melting point: 134 to 136 °C
Cc1cc(C#N)cc(C)c1Oc1nc(Nc2ccc(B3OC(C)(C)C(C)(C)O3)cc2)nc2c1COC2 [Compound 3c, 3,5-Dimethyl-4-((2-((4-(4,4,5,5-tetramethyl-1,3,2-dioxaborolan-2-yl)phenyl)amino) -5,7-dihydrofuro [3,4-d]pyrimidin-4-yl)oxy)benzonitrile]	228 ± 45	4520 ± 1540	21	9100 ± 2640	177.2	22	85.1	2430 ± 302	39	47.3	25800 ± 7930	503	130 ± 41	731	2.5	51 ± 15	1.0	120 ± 19	792	2.3	RF Y188L [2]: 87.9; SI F227L + V106A [3]: 10; EC50 [4]: 4370 ± 2190 nM; SI RES056 [6]: < 1; SI IIIB (wild-type HIV-1 (IIIB)): 1847; CC50 at 5 days [9]: 94800 ± 32200 nM; melting point: 149 to 151 °C
Cc1cc(/C=C/C#N)cc(C)c1Oc1nc(Nc2ccc(B3OC(C)(C)C(C)(C)O3)cc2)nc2sccc12 [Compound 4b, (E)-3-(3,5-Dimethyl-4-((2-((4-(4,4,5,5-tetramethyl-1,3,2-dioxaborolan-2-yl)phenyl)amino)thieno [2,3-d]pyrimidin-4-yl)oxy)phenyl)acrylonitrile]	47 ± 1	2520 ± 238	9	3210 ± 1970	313.5	33	65.9	280 ± 55	79	27.4	2300 ± 660	224	30 ± 9	732	3.0	10 ± 3	1.0	8 ± 2	2866	0.8	RF Y188L [2]: 246.1; SI F227L + V106A [3]: 7; EC50 [4]: 675 ± 188 nM; fold more potent than 3b ([6]; RES056 EC50, versus 3b): 75 fold; SI RES056 [6]: 10; SI IIIB (wild-type HIV-1 (IIIB)): 2161; CC50 at 5 days [9]: 22100 ± 3690 nM

Source: publication PMC9657321, “Identification of Boronate-Containing Diarylpyrimidine Derivatives as Novel HIV-1 Non-Nucleoside Reverse Transcriptase Inhibitors” (Molecules, 2022)
